PubChem BioAssay (NCI)
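Briefly, cells in 96-well plates were exposed to five compound concentrations for 48 h, and endpoints were estimated by linear interpolation. Here, GI50 denotes the concentration required for 50% inhibition of growth. The concentration for full growth arrest is given as TGI.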

Assays:
Assay in all cases: DTP human tumour cell line panel, 48 h; in the data active means GI50 below about 0.43 µM; inactive means the rest
[1] = tested on: 786-0 renal
[2] = tested on: A498 renal
[3] = tested on: A549 NSCLC
[4] = tested on: ACHN renal
[5] = tested on: BT-549 breast
[6] = tested on: CAKI-1 renal
[7] = tested on: CCRF-CEM leukemia
[8] = tested on: COLO 205 colon
[9] = tested on: DU-145 prostate
[10] = tested on: HCC-2998 colon
[11] = tested on: HCT-116 colon
[12] = tested on: HCT-15 colon
[13] = tested on: HL-60(TB) leukemia
[14] = tested on: HOP-62 NSCLC
[15] = tested on: HOP-92 NSCLC
[16] = tested on: HS 578T breast
[17] = tested on: HT29 colon
[18] = tested on: IGROV1 ovarian
[19] = tested on: K-562 leukemia
[20] = tested on: KM12 colon
[21] = tested on: LOX IMVI melanoma
[22] = tested on: M14 melanoma
[23] = tested on: MALME-3M melanoma
[24] = tested on: MCF7 breast
[25] = tested on: MDA-MB-231 breast
[26] = tested on: MDA-MB-435
[27] = tested on: MOLT-4 leukemia
[28] = tested on: NCI-H226 lung
[29] = tested on: NCI-H23 lung
[30] = tested on: NCI-H460 lung
[31] = tested on: NCI-H522 lung
[32] = tested on: NCI/ADR-RES ovarian
[33] = tested on: OVCAR-3 ovarian
[34] = tested on: OVCAR-4 ovarian
[35] = tested on: OVCAR-5 ovarian
[36] = tested on: OVCAR-8 ovarian
[37] = tested on: PC-3 prostate
[38] = tested on: RPMI-8226 leukemia
[39] = tested on: RXF 393 renal
[40] = tested on: SF-268 CNS
[41] = tested on: SF-295 CNS
[42] = tested on: SF-539 CNS
[43] = tested on: SK-MEL-2 melanoma
[44] = tested on: SK-MEL-28 melanoma
[45] = tested on: SK-MEL-5 melanoma
[46] = tested on: SK-OV-3 ovarian
[47] = tested on: SN12C renal
[48] = tested on: SNB-19 CNS
[49] = tested on: SNB-75 CNS
[50] = tested on: SR leukemia
[51] = tested on: SW-620 colon
[52] = tested on: T-47D breast
[53] = tested on: TK-10 renal
[54] = tested on: U251 CNS
[55] = tested on: UACC-257 melanoma
[56] = tested on: UACC-62 melanoma
[57] = tested on: UO-31 renal

Nc1c(C(=O)Nc2cccc(C(F)(F)F)c2)sc2nc3c(cc12)C(O)CCC3 (centres undefined)
> 95.5 µM: TGI [28]
66.8 µM: TGI [52]
> 79.4 µM: TGI [3]
> 46.6 µM: TGI [34]
38.4 µM: TGI [41]
28.4 µM: TGI [37]
> 88.1 µM: TGI [50]
39.4 µM: TGI [14]
25.6 µM: TGI [15]
> 100 µM: TGI [5] | TGI [6] | TGI [7] | TGI [8] | TGI [10] | TGI [11] | TGI [12] | TGI [13] | TGI [17] | TGI [18] | TGI [19] | TGI [20] | TGI [21] | TGI [24] | TGI [25] | TGI [27] | TGI [29] | TGI [30] | TGI [31] | TGI [32] | TGI [35] | TGI [36] | TGI [38] | TGI [44] | TGI [46] | TGI [47] | TGI [48] | TGI [51] | TGI [55] | TGI [56] | TGI [57]
37.6 µM: TGI [54]
99.5 µM: TGI [22]
> 68.4 µM: TGI [4]
> 41.9 µM: TGI [42]
active: GI50 [26] 0.322 µM
18.1 µM: TGI [49]
56.4 µM: TGI [43]
50.8 µM: TGI [39]
> 68 µM: TGI [23]
inactive: GI50 [1] 13.7 µM | GI50 [2] 0.872 µM | GI50 [3] 6.85 µM | GI50 [4] 10.1 µM | GI50 [5] 7.27 µM | GI50 [6] 9.52 µM | GI50 [7] 3.4 µM | GI50 [8] 3.79 µM | GI50 [9] 5.44 µM | GI50 [10] > 61.2 µM | GI50 [11] 3.02 µM | GI50 [12] 1.93 µM | GI50 [13] 3.22 µM | GI50 [14] 6.82 µM | GI50 [15] 3.31 µM | GI50 [16] 6.23 µM | GI50 [17] 3.35 µM | GI50 [18] 14.1 µM | GI50 [19] 0.703 µM | GI50 [20] 3.28 µM | GI50 [21] 5.68 µM | GI50 [22] 3.18 µM | GI50 [23] 6.72 µM | GI50 [24] 1.39 µM | GI50 [25] 12.2 µM | GI50 [27] 6.7 µM | GI50 [28] 10.8 µM | GI50 [29] 15.2 µM | GI50 [30] 4.55 µM | GI50 [31] 12.7 µM | GI50 [32] 6.14 µM | GI50 [33] 4.27 µM | GI50 [34] 3.46 µM | GI50 [35] > 50 µM | GI50 [36] 9.66 µM | GI50 [37] 4.02 µM | GI50 [38] 4.26 µM | GI50 [39] 5.65 µM | GI50 [40] 6.07 µM | GI50 [41] 3.07 µM | GI50 [42] 4 µM | GI50 [43] 6.69 µM | GI50 [44] 6.42 µM | GI50 [45] 3.59 µM | GI50 [46] 15.3 µM | GI50 [47] 11.1 µM | GI50 [48] 14.4 µM | GI50 [49] 3.47 µM | GI50 [50] 0.61 µM | GI50 [51] 2.73 µM | GI50 [52] 8.69 µM | GI50 [53] 11.8 µM | GI50 [54] 6.05 µM | GI50 [55] > 26.2 µM | GI50 [56] 3.2 µM | GI50 [57] 32.2 µM
> 81.6 µM: TGI [45]
27.7 µM: TGI [2]
> 49.3 µM: TGI [33]
> 67.1 µM: TGI [40]
1.65 µM: TGI [26]
44.8 µM: TGI [1]
50.2 µM: TGI [53]
> 57.9 µM: TGI [9]
96.9 µM: TGI [16]
